The values below come from patent US10351539B2, “Macrocyclic complexes, their process of preparation and use as PET imaging agents” (INSTITUT NATIONAL DE LA SANTE ET DE LA RECHERCHE MEDICALE …, priority 2014, dated 2019).

This data set is described as follows: Biodistribution in healthy and SRC bearing rats at 1 h after i.v. injection of radiolabelled compounds. The format is in vivo. The conditions noted are these: mean ± SD (n = 3); for Tumor: SRC (Swarm Rat Chondrosarcoma) bearing rats; for Articular Cartilage / Bladder / Blood / Kidney / Muscle / Liver: healthy and SRC bearing rats; for Liver: ND: at undetectable levels. The method, then: Quantitative biodistribution of radiolabelled compounds was determined in rats: healthy animals as well as rats with primary grade II orthotopic chondrosarcoma at stage Day-30 after induction. The chondrosarcoma model was the Swarm Rat Chondrosarcoma model (SRC) implanted in paratibial location. Radiolabelled compounds (5-10 Mbq/animal) were i.v. administered in the caudal vein of animals being anesthetized of mixture of ketamine (58 mg/kg i.p.) (Imalgéne 500®) and xylazine (6 mg/kg i.p.) (Rompun® 2%, Bayer, France). One hour after injection, animals were then sacrificed by CO2 inhalation, dissected and organs of interest removed, weighed and their radioactivity counted using a gamma counter (Model 1480 Wizard, Perkin Elmer Life Sciences, Boston, USA). Organs collected were blood, muscle, knee, kidneys, liver, thoracic ribs, bladder for both healthy and chondrosarcoma bearing rats. For SRC animals, tumour was also sampled. After radioactive decay correction, results were expressed for each organ as % injected dose per gram (% ID/g) and averaged per group.

In the case of `CC[N+](CC)(CC)CCCN1CCCNCCN(Cc2ccccn2)CCCNCC1.[64Cu+2]` [^64Cu-27, [^64Cu]—N,N,N-Triethyl-3-(8-(pyridin-2-ylmethyl)-1,4,8,11-tetraazacyclotetradecan-1-yl)propan-1-aminium copper(II)], the Tumor came to 1.4 ± 0.07 % ID/g, the Articular Cartilage turned out to be 1.5 ± 0.4 % ID/g, the Bladder is given as 30.5 ± 10.9 % ID/g and the Blood is on record as 0.4 ± 0.07 % ID/g. This molecule showed a Kidney of 7.6 ± 4.6 % ID/g, a Muscle of 0.43 ± 0.15 % ID/g and a Liver of 1.2 ± 0.4 % ID/g.

With `CC[N+](CC)(CC)CCCN1CCCN(Cc2ccccn2)CCNCCCN(Cc2ccccn2)CC1.[64Cu+2]` [^64Cu-30, [^64Cu]-3-(4,11-Bis(pyridin-2-ylmethyl)-1,4,8,11-tetraazacyclotetradecan-1-yl)-N,N,N-triethylpropan-1-aminium copper(II)], the Tumor is 4.2 ± 0.6 % ID/g, the Articular Cartilage came out at 2.7 ± 0.4 % ID/g, the Bladder is given as 25.2 ± 10.6 % ID/g and the Blood is reported as 0.7 ± 0.2 % ID/g. This molecule showed a Kidney of 9.2 ± 0.9 % ID/g and a Muscle of 0.80 ± 0.4 % ID/g.

`CC[N+](CC)(CC)CCCN1CCCN2CCN(CCCN(CC(=O)OC(C)(C)C)CC1)CC2.[64Cu+2]` [^64Cu-13, [^64Cu]-3-(8-(2-tert-Butoxy-2-oxoethyl)-1,5,8,12-tetraazabicyclo[10.2.2]hexadecan-5-yl)-N,N,N-triethylpropan-1-aminium copper(II)]: the Articular Cartilage is reported as 0.16 ± 0.06 % ID/g, the Bladder worked out at 11.83 % ID/g, the Blood was found to be 0.07 ± 0.01 % ID/g and the Kidney worked out at 1.06 ± 0.66 % ID/g. In addition, the Muscle was found to be 0.03 ± 0.01 % ID/g and the Liver is given as 0.06 ± 0.01 % ID/g.

Molecule `CC[N+](CC)(CC)CCCN1CCCN2CCN(CCCN(CC(=O)O)CC1)CC2.[64Cu+2]` [^64Cu-14, [^64Cu]-3-(8-(Carboxymethyl)-1,5,8,12-tetraazabicyclo[10.2.2]hexadecan-5-yl)-N,N,N-triethylpropan-1-aminium copper(II)] gave an Articular Cartilage of 0.11 ± 0.02 % ID/g, a Bladder of 14.71 % ID/g, a Blood of 0.09 ± 0.04 % ID/g and a Kidney of 0.73 ± 0.22 % ID/g. Besides, the Muscle amounted to 0.04 ± 0.00 % ID/g and the Liver came to 0.06 ± 0.02 % ID/g.
